Assay [1] addresses T1, Cyclooxygenase (Rattus norvegicus, UniProt P35355+Q63921).
T1 sequence (P35355 whole entry): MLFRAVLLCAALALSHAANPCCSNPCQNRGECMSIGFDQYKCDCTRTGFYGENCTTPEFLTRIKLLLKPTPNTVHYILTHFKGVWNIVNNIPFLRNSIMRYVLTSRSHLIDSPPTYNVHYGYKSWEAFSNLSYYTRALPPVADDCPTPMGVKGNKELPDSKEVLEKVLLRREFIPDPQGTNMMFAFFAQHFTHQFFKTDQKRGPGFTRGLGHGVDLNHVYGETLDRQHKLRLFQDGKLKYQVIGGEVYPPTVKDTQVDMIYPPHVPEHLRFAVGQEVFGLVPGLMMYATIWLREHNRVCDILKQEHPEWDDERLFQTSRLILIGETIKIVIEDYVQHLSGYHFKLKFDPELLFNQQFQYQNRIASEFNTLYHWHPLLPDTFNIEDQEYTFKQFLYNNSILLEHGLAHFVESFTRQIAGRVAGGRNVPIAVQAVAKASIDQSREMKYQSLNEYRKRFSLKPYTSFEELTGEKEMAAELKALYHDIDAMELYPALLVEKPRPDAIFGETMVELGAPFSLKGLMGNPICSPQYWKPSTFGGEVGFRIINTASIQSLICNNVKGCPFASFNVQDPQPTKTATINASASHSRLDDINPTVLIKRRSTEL
T1 sequence (Q63921 whole entry): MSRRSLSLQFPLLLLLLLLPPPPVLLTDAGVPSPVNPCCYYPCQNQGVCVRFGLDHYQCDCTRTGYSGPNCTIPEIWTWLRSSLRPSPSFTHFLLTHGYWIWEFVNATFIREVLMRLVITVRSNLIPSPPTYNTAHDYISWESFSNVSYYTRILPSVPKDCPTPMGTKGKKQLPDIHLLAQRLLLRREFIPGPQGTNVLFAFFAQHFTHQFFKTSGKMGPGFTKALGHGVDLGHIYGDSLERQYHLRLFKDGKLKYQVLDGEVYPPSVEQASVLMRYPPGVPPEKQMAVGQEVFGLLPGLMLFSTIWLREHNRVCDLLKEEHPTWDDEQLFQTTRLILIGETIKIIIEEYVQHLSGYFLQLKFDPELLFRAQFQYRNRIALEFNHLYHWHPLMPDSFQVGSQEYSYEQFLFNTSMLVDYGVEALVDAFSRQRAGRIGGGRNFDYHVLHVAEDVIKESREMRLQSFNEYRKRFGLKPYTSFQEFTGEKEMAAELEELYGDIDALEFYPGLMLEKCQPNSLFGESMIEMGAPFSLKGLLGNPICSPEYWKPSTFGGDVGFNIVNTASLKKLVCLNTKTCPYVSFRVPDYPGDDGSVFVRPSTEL
Briefly: Inhibitory activity against Cyclooxygenase (COX) using broken rat […] leukemia cells (RBL-1). The class given is cell-based.

In assay [2] the target is T1, Cyclooxygenase. The assay is described as follows: Inhibitory activity against cyclooxygenase (COX) in intact rat […] leukemia cells (RBL-1). The class given is cell-based.
In assay [3] the target is Cyclooxygenase (Rattus norvegicus) (UniProt P35355+Q63921). The assay is described as follows: Inhibitory activity against Cyclooxygenase (COX) using broken rat […] leukemia cells (RBL-1) at 10 uM. Format: cell-based.
The target in assay [4] is T2, Prostaglandin G/H synthase 1 (Ovis aries) (UniProt P05979).
T2 sequence (whole entry): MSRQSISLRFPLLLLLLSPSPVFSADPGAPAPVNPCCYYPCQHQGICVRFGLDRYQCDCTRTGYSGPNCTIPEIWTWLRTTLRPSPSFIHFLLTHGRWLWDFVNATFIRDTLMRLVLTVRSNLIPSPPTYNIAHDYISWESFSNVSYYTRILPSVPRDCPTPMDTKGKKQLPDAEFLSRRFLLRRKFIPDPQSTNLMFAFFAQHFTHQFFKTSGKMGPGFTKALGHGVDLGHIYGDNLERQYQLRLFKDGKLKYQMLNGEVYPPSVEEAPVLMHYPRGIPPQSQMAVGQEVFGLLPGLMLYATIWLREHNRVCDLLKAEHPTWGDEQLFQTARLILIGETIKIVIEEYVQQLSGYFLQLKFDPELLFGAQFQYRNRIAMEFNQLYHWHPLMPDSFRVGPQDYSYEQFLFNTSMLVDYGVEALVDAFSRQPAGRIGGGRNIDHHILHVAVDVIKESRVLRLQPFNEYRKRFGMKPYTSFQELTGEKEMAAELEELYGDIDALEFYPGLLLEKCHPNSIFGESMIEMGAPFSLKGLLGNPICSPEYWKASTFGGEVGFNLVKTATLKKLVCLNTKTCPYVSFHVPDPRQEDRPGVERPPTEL
The assay is described as follows: Inhibitory activity against Cyclooxygenase using sheep seminal vesicle (SSV) enzyme (COX-1)at 10 uM. Format: tissue-based.

Assay [5] deals with T2, Prostaglandin G/H synthase 1 (Ovis aries). The assay is described as follows: Inhibitory activity against Cyclooxygenase using sheep seminal vesicle (SSV) enzyme (COX-1) at 10 uM. The class given is tissue-based.
The target of assay [6] is T3, Polyunsaturated fatty acid 5-lipoxygenase (Rattus norvegicus) (UniProt P12527).
T3 sequence (whole entry): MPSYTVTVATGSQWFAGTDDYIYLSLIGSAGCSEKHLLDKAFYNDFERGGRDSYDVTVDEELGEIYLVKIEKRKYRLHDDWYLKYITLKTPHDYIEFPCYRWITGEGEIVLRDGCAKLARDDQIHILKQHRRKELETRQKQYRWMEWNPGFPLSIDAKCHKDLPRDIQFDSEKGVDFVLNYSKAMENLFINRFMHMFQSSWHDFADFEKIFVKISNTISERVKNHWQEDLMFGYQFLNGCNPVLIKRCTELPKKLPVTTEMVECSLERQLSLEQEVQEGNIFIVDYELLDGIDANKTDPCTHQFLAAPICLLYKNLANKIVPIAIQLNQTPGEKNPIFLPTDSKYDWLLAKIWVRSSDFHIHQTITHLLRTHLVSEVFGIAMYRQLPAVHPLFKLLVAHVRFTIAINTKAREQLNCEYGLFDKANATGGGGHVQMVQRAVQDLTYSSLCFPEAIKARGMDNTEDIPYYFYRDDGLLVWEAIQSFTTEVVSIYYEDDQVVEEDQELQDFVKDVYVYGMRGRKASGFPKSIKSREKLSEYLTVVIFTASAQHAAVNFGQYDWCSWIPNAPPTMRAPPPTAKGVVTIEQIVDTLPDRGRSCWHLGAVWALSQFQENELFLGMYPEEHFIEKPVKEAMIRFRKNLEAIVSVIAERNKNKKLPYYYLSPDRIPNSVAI
Briefly: Inhibitory activity against 5-lipoxygenase (5-LO) using broken rat […] leukemia cells (RBL-1)at 10 uM. The class given is cell-based.

Assay [7] has as its target T3, Polyunsaturated fatty acid 5-lipoxygenase (Rattus norvegicus). Briefly: Inhibitory activity against 5-lipoxygenase (5-LO) using broken rat […] leukemia cells (RBL-1) at 10 uM. The class given is cell-based.

Experimental findings from ChEMBL document CHEMBL1131670, “N-hydroxyurea and hydroxamic acid inhibitors of cyclooxygenase and 5-lipoxygenase” (Bioorg Med Chem Lett, 1999) are described below.

By IC50 is commonly meant the concentration at which inhibition is half-maximal. High values mean weaker potency in that assay, low ones greater potency in that assay. The inhibition is the change of the read-out against control, counted positive when it falls. Low values mean little suppression, high ones strong suppression.

As for `COc1ccc(-n2nc(C#CC(C)N(O)C(C)=O)cc2-c2ccc(C)cc2)cc1` (stereo unspecified), the values for the IC50 at Cyclooxygenase [1] and against Cyclooxygenase [2] were 10 nM and 110 nM, respectively.
In turn, `COc1ccc(-n2nc(C#CC(C)N(O)C(N)=O)cc2-c2ccc(Cl)cc2)cc1` (stereo unspecified) returned an inhibition in assay [3] of 0%. Further, the 50% inhibitory concentration (IC50) at Cyclooxygenase [2] came out at 6200 nM.
Consider `COc1ccc(-n2nc(C#CC(C)N(O)C(N)=O)cc2-c2ccc(C)cc2)cc1` (stereo unspecified), for which the inhibition in assay [4] worked out at 10%. Moreover, the IC50 against Cyclooxygenase [1] was determined as 9400 nM; against Cyclooxygenase [2] it was 1400 nM.
As for `COc1ccc(-n2nc(C#CC(C)N(O)C(=O)C(C)C)cc2-c2ccc(C)cc2)cc1` (stereo unspecified), the figures for the 50% inhibitory concentration (IC50) against Cyclooxygenase [1] and against Cyclooxygenase [2] were 40 nM and 90 nM, respectively.
`COC(=O)N(O)CC#Cc1cc(-c2ccc(C)cc2)n(-c2ccc(OC)cc2)n1`: the inhibition stood at 74% in assay [5] and 100% in assay [6]. For the same molecule, the IC50 on Cyclooxygenase [2] stood at 280 nM.
On to `CCOC(=O)CCC(=O)N(O)C(C)C#Cc1cc(-c2ccc(C)cc2)n(-c2ccc(OC)cc2)n1` (stereo unspecified), for which the inhibition in assay [6] stood at 97%. At Cyclooxygenase [2], this molecule returned an IC50 of 10000 nM.
Regarding `CCc1ccc(-c2cc(C#CC(C)N(O)C(=O)OC)nn2-c2ccc(OC)cc2)cc1` (stereo unspecified), the figures for the inhibition in assay [5] and in assay [6] were 21% and 78%, respectively. For the same molecule, the IC50 against Cyclooxygenase [2] was found to be 750 nM.
Take `CCc1ccc(-c2cc(C#CC(C)N(O)C(=O)CCl)nn2-c2ccc(OC)cc2)cc1` (stereo unspecified): the figures for the inhibition in assay [3] and in assay [6] were 86% and 100%, respectively. The IC50 against Cyclooxygenase [2] came out at 1700 nM.
Molecule `COc1ccc(-n2nc(C#CC(C)N(O)C(=O)N3CCOCC3)cc2-c2ccc(Cl)cc2)cc1` (stereo unspecified) gave an inhibition in assay [4] of 14%. The same molecule displayed an IC50 against Cyclooxygenase [2] of 1600 nM.
Take `CCCNC(=O)N(O)C(C)C#Cc1cc(-c2ccc(Cl)cc2)n(-c2ccc(OC)cc2)n1` (stereo unspecified): the figures for the inhibition in assay [4] and in assay [6] were 14% and 82%, respectively.
Consider `CCC(C#Cc1cc(-c2ccc(Cl)cc2)n(-c2ccc(OC)cc2)n1)N(O)C(N)=O` (stereo unspecified), for which the figures for the inhibition in assay [4] and in assay [6] were 0% and 91%, respectively. Besides, the 50% inhibitory concentration (IC50) at Cyclooxygenase [2] was found to be 70400 nM.
As to `COc1ccc(-n2nc(C#CCN(O)C(N)=O)cc2-c2ccc(Cl)cc2)cc1`, the figures for the inhibition in assay [5] and in assay [3] were 9% and 0%, respectively.
Take `CCc1ccc(-c2cc(C#CC(C)N(O)C(C)=O)nn2-c2ccc(OC)cc2)cc1` (stereo unspecified): the concentration for half-maximal inhibition (IC50) against Cyclooxygenase [1] stood at 60 nM; against Cyclooxygenase [2], 340 nM.
Consider `COc1ccc(-n2nc(C#CC(C)N(O)C(=O)c3ccccc3)cc2-c2ccc(Cl)cc2)cc1` (stereo unspecified), for which, in assay [5], the inhibition was 5%. Further, the IC50 at Cyclooxygenase [1] worked out at 14900 nM; at Cyclooxygenase [2], 5500 nM.
As for `COc1ccc(-n2nc(C#CC(C)N(O)C(=O)C(F)(F)F)cc2-c2ccc(C)cc2)cc1` (stereo unspecified), the results for the IC50 on Cyclooxygenase [1] and at Cyclooxygenase [2] were 50 nM and 190 nM, respectively.
Take `COc1ccc(-n2nc(C#CCN(O)C(=O)c3ccncc3)cc2-c2ccc(C)cc2)cc1`: the inhibition in assay [5] came out at 17%; in assay [6], 89%. On Cyclooxygenase [2], this molecule registered a 50% inhibitory concentration (IC50) of 5500 nM.
Take `COC(=O)N(O)C(C)C#Cc1cc(-c2ccc(Cl)cc2)n(-c2ccc(OC)cc2)n1` (stereo unspecified): the inhibition in assay [7] stood at 77%; in assay [3], 84%. In addition, the IC50 at Cyclooxygenase [2] was 290 nM.
Regarding `CCc1ccc(-c2cc(C#CC(C)N(O)C(=O)C(C)C)nn2-c2ccc(OC)cc2)cc1` (stereo unspecified), the inhibition in assay [7] came out at 93%. The molecule further came in with an IC50 at Cyclooxygenase [2] of 180 nM.
With `COc1ccc(-n2nc(C#CC(C)N(O)C(=O)N3CCCCC3)cc2-c2ccc(Cl)cc2)cc1` (stereo unspecified), the figures for the inhibition in assay [4] and in assay [6] were 44% and 76%, respectively.
As for `COC(=O)N(O)C(C)C#Cc1cc(-c2ccc(C)cc2)n(-c2ccc(OC)cc2)n1` (stereo unspecified), the IC50 on Cyclooxygenase [1] was determined as 140 nM; at Cyclooxygenase [2], 490 nM.
For `COc1ccc(-n2nc(C#CC(C)N(O)C(=O)c3ccco3)cc2-c2ccc(C)cc2)cc1` (stereo unspecified), the inhibition was determined as 70% in assay [7] and 61% in assay [3].
Turning to `CCC(C#Cc1cc(-c2ccc(C)cc2)n(-c2ccc(OC)cc2)n1)N(O)C(N)=O` (stereo unspecified), the inhibition in assay [5] is 22%. The IC50 against Cyclooxygenase [1] turned out to be 15900 nM; against Cyclooxygenase [2] it was 2100 nM.
In the case of `COc1ccc(-n2nc(C#CCN(O)C(=O)c3ccccc3)cc2-c2ccc(C)cc2)cc1`, the inhibition in assay [5] was 52%; in assay [6], 100%.
On to `CCOC(=O)C(=O)N(O)C(C)C#Cc1cc(-c2ccc(C)cc2)n(-c2ccc(OC)cc2)n1` (stereo unspecified), for which the inhibition in assay [5] worked out at 66%; in assay [6], 71%. Further, at Cyclooxygenase [2], the IC50 worked out at 3400 nM.
In assay [5], `COc1ccc(-n2nc(C#CC(C(C)C)N(O)C(N)=O)cc2-c2ccc(C)cc2)cc1` (stereo unspecified) yielded an inhibition of 29%. Moreover, the 50% inhibitory concentration (IC50) against Cyclooxygenase [1] worked out at 4600 nM; on Cyclooxygenase [2] it was 1200 nM.
Take `CCC(C#Cc1cc(-c2ccc(C)cc2)n(-c2ccc(OC)cc2)n1)N(O)C(C)=O` (stereo unspecified): the IC50 against Cyclooxygenase [1] stood at 10 nM; at Cyclooxygenase [2] it was 220 nM.
Turning to `CCC(=O)N(O)CC#Cc1cc(-c2ccc(C)cc2)n(-c2ccc(OC)cc2)n1`, the inhibition in assay [5] amounted to 79%; in assay [6], 100%. The same molecule registered an IC50 on Cyclooxygenase [2] of 60 nM.
On the same counts, the results for `COc1ccc(-n2nc(C#CC(C(C)C)N(O)C(N)=O)cc2-c2ccc(Cl)cc2)cc1` (stereo unspecified) are 38%, 90% and 14500 nM.
Turning to `CCOC(=O)CCC(=O)N(O)C(C)C#Cc1cc(-c2ccc(CC)cc2)n(-c2ccc(OC)cc2)n1` (stereo unspecified), the inhibition was found to be 3% in assay [5], 97% in assay [7] and 52% in assay [3]. At Cyclooxygenase [2], this molecule displayed an IC50 of 14000 nM.
Turning to `COc1ccc(-n2nc(C#CC(C)N(O)C(=O)c3cccnc3)cc2-c2ccc(C)cc2)cc1` (stereo unspecified), the inhibition in assay [7] is 88%; in assay [3], 54%. This molecule also had an IC50 at Cyclooxygenase [2] of 11500 nM.
